Measured values as given in ChEMBL document CHEMBL5465560, “Selectivity Literature for EUbOPEN Chemogenomic Library” (2024).

Assays:
[1] = biological target: T1, Serine/threonine-protein kinase D3 (Homo sapiens) (UniProt O94806); experiment: Selectivity interaction (KinomeScan (DiscoverX)) EUB0000595a PRKD3; conditions: at 10 µM
T1 sequence (whole entry): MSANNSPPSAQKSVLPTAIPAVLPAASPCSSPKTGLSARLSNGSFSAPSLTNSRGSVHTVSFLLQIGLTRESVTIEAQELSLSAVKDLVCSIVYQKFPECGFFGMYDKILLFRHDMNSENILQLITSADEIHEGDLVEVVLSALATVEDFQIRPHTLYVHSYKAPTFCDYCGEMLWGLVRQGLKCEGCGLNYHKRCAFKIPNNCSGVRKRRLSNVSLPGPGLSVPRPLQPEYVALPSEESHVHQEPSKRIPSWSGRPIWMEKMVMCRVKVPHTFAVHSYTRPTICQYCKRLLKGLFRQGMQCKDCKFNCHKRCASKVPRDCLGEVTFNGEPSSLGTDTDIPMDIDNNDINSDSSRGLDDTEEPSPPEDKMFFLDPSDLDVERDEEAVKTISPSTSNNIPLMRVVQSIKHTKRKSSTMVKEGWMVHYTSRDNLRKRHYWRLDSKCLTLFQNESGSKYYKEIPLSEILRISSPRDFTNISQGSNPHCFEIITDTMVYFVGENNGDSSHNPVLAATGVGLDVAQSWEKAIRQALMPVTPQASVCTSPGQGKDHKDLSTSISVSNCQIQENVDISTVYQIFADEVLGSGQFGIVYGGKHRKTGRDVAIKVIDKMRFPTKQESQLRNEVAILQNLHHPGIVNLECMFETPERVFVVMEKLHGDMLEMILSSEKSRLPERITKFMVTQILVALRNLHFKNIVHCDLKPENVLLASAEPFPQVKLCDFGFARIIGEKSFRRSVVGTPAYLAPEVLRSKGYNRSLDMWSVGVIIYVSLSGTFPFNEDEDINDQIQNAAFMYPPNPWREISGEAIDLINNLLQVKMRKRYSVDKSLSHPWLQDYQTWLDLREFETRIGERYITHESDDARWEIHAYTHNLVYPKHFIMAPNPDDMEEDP

[2] = biological target: T2, Glycogen synthase kinase-3 alpha (Homo sapiens, UniProt P49840); experiment: Selectivity interaction (KinomeScan (DiscoverX)) EUB0000045b GSK3A
T2 sequence (P49840 2-483 limits assumed): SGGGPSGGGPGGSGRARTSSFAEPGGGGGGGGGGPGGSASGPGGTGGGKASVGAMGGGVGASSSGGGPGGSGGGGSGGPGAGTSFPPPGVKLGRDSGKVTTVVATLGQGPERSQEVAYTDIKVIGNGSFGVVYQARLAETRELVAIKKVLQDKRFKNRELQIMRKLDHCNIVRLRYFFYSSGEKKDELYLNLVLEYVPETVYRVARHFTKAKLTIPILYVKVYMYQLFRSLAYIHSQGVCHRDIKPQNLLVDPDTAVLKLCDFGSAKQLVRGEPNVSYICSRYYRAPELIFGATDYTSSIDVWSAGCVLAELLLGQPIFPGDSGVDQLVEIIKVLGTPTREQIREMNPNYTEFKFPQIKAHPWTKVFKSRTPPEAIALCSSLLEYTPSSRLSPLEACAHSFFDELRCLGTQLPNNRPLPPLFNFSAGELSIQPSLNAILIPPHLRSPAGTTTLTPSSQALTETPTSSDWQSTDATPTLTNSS

[3] = biological target: T3, Serine/threonine-protein kinase LATS2 (Homo sapiens) (UniProt Q9NRM7); experiment: Selectivity interaction (KinomeScan (DiscoverX)) EUB0000666a LATS2; conditions: at 10 µM
T3 sequence (whole entry): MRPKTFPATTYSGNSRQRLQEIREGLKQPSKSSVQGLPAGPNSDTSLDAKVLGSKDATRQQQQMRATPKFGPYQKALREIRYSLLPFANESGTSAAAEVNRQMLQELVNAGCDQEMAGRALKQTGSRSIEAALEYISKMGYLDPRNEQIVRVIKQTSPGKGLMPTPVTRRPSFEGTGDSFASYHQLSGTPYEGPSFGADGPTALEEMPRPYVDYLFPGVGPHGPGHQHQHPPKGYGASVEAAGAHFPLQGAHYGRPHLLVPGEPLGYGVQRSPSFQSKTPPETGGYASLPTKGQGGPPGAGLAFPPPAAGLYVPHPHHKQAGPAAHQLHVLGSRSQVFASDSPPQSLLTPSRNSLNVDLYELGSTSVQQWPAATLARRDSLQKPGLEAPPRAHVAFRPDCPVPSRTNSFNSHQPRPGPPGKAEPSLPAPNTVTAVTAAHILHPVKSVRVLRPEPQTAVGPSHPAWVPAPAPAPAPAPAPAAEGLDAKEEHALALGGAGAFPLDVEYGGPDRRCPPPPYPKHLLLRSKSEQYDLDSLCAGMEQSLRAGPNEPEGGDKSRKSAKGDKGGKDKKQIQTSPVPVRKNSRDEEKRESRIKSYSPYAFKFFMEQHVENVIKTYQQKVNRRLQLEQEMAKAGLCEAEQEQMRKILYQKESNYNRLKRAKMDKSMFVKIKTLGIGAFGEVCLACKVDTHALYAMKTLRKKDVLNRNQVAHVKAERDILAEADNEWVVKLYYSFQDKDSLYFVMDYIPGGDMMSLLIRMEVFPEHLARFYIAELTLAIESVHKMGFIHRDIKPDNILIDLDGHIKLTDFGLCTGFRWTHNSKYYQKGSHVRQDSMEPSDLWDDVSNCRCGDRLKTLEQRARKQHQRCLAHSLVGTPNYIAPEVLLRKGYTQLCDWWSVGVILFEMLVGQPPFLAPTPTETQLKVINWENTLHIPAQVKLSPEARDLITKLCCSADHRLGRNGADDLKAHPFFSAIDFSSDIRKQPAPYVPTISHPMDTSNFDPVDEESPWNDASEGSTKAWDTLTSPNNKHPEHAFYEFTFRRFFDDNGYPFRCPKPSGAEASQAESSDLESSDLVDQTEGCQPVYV

[4] = biological target: Dual specificity tyrosine-phosphorylation-regulated kinase 1A (Homo sapiens, UniProt Q13627); conditions: at 10 µM
[5] = biological target: T2, Glycogen synthase kinase-3 alpha; experiment: Selectivity interaction (ActivX KiNativ screen (ex vivo kinase selectivity in human PBMCs)) EUB0001619a GSK3A; type: cell-based; conditions: PBMC, at 1 µM
[6] = biological target: Ribosomal protein S6 kinase beta-1 (Homo sapiens, UniProt P23443); experiment: Selectivity interaction (ActivX KiNativ screen (ex vivo kinase selectivity in human PBMCs)) EUB0001619a RPS6KB1; type: cell-based; conditions: PBMC, at 1 µM
[7] = biological target: Serine/threonine-protein kinase Chk2 (Homo sapiens) (UniProt O96017); experiment: Selectivity interaction (ActivX KiNativ screen (ex vivo kinase selectivity in human PBMCs)) EUB0001619a CHEK2; type: cell-based; conditions: PBMC, at 1 µM
Sequence of Serine/threonine-protein kinase Chk2 (Homo sapiens) (O96017 whole entry): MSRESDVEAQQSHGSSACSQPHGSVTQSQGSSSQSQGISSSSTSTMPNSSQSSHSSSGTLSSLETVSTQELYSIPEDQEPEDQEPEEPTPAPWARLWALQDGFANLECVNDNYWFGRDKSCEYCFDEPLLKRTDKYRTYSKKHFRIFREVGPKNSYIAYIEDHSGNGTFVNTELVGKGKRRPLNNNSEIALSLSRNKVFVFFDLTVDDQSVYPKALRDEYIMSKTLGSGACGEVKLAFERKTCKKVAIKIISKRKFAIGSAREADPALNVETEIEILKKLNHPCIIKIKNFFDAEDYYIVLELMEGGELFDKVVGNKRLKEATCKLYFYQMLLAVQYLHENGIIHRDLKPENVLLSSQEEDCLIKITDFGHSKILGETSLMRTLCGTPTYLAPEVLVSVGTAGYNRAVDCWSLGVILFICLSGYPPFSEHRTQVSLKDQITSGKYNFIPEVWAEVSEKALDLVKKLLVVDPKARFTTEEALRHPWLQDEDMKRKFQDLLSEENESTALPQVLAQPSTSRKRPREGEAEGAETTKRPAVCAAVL

[8] = biological target: Insulin receptor-related protein (Homo sapiens) (UniProt P14616); experiment: Selectivity interaction (KinomeScan (DiscoverX)) EUB0000607a INSRR; conditions: at 10 µM
Sequence of Insulin receptor-related protein (Homo sapiens) (P14616 27-742 limits assumed): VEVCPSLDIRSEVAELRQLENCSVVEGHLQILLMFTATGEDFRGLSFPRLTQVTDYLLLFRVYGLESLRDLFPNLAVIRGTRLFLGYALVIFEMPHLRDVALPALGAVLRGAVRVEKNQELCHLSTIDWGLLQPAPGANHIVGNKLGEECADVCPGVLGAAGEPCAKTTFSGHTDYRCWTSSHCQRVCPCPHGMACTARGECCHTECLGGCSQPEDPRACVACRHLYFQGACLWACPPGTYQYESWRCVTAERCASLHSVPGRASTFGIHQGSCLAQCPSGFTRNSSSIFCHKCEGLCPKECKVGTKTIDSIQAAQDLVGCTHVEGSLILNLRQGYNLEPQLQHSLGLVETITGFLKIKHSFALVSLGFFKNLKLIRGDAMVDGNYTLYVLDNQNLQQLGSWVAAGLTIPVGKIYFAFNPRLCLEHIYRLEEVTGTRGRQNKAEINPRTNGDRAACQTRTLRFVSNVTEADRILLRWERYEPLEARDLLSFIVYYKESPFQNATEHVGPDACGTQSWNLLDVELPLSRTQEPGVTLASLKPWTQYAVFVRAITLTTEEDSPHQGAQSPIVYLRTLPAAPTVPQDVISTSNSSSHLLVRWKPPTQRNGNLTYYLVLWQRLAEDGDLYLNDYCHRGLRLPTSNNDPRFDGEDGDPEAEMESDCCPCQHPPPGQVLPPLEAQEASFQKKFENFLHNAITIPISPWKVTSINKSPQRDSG
Sequence of Insulin receptor-related protein (Homo sapiens) (P14616 747-1297 limits assumed): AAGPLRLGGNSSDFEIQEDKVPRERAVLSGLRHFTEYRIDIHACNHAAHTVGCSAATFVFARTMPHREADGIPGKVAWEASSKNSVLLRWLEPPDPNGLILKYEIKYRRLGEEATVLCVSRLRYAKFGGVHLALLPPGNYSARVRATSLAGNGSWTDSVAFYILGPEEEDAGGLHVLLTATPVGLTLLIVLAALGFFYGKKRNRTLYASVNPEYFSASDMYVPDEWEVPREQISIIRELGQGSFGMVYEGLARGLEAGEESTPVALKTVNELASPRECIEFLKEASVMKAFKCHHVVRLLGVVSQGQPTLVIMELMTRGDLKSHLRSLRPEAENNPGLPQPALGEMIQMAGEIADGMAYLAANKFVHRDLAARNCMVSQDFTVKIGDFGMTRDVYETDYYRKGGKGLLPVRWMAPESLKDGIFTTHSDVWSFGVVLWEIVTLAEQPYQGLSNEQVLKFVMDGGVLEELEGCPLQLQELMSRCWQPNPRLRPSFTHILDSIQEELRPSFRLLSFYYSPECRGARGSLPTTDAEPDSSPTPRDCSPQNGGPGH

[9] = biological target: Receptor tyrosine-protein kinase erbB-3 (Homo sapiens) (UniProt P21860); experiment: Selectivity interaction (KinomeScan (DiscoverX)) EUB0000618a ERBB3; conditions: at 10 µM
Sequence of Receptor tyrosine-protein kinase erbB-3 (Homo sapiens) (P21860 whole entry, canonical isoform): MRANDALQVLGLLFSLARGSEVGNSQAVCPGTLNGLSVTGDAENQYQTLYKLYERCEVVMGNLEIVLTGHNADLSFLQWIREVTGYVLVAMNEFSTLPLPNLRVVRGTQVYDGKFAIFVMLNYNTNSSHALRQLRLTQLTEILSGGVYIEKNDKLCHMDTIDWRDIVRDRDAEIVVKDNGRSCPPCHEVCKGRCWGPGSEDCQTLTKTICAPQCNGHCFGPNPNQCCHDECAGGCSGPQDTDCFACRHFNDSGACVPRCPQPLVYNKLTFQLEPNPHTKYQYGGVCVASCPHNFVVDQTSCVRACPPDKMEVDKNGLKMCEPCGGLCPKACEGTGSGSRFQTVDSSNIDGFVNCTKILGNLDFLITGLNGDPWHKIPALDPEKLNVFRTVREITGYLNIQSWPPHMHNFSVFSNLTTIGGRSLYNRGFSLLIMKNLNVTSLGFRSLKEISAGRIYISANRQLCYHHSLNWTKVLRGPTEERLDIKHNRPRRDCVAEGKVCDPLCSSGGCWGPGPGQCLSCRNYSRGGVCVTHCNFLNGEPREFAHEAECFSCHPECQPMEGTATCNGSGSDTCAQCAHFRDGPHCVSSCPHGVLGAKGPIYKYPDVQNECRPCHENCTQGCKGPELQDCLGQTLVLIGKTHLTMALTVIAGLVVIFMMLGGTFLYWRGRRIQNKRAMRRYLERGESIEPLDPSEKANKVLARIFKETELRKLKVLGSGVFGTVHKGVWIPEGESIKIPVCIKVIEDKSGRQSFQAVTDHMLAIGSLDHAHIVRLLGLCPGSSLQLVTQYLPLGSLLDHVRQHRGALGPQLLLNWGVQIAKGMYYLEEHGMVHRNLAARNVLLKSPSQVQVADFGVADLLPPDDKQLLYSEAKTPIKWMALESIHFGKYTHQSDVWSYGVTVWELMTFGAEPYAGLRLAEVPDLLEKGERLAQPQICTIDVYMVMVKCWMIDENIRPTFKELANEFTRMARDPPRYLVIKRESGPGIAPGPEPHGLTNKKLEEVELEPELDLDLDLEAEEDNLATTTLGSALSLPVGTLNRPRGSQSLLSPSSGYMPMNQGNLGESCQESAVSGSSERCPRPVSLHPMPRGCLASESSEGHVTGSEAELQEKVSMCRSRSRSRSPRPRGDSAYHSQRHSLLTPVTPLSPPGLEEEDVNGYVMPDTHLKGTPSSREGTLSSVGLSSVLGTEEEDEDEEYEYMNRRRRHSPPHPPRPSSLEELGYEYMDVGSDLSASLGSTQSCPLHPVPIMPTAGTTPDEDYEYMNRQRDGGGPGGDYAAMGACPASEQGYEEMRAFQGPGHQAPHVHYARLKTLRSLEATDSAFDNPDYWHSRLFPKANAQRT

[10] = biological target: Casein kinase I isoform gamma-2 (Homo sapiens) (UniProt P78368); experiment: Selectivity interaction (ActivX KiNativ screen (kinase selectivity in THP-1 cell lysates)) EUB0000639a CSNK1G2; type: subcellular; conditions: lysate
Sequence of Casein kinase I isoform gamma-2 (Homo sapiens) (P78368 whole entry, looked up, canonical isoform): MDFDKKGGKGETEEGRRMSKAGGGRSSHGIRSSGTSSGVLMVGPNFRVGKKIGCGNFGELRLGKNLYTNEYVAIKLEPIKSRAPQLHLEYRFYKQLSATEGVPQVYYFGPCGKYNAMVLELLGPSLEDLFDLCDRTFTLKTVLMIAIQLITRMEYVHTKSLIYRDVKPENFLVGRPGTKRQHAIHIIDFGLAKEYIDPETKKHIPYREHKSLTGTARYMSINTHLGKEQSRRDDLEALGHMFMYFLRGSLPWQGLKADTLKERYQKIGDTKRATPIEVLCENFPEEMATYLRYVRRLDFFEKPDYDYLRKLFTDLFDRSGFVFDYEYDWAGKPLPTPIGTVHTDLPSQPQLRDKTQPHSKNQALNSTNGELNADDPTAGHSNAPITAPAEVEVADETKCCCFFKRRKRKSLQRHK

[11] = biological target: Ribosomal protein S6 kinase alpha-3 (Homo sapiens, UniProt P51812); experiment: Selectivity interaction (ActivX KiNativ screen (kinase selectivity in THP-1 cell lysates)) EUB0000639a RPS6KA3; type: subcellular; conditions: lysate, at 0.2 µM
Sequence of Ribosomal protein S6 kinase alpha-3 (P51812 whole entry): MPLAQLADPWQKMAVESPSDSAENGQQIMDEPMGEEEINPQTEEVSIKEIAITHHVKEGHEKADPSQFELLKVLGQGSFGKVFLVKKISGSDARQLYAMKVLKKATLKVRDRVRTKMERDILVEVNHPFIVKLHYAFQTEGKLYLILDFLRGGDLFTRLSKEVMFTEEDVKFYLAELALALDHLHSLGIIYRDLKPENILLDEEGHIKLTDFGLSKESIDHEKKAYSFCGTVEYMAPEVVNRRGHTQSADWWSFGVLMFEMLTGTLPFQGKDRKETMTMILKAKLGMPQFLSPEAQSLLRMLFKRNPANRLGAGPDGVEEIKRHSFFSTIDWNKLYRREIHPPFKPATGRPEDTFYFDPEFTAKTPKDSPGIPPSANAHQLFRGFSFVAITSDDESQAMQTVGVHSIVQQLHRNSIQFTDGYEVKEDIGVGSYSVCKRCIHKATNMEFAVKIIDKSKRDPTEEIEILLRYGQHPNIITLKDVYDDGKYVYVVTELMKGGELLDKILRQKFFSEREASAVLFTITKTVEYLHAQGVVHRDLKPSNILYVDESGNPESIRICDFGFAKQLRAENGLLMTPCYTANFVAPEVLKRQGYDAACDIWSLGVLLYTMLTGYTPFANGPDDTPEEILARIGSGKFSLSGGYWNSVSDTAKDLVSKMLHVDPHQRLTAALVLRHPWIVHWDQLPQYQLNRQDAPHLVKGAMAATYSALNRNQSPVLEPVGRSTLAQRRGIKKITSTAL

## COCC(=O)NC/C=C/c1ccc2ncnc(Nc3ccc(Oc4ccc(C)nc4)c(C)c3)c2c1 [CP-724714]
[1]
  % of control: 83%

## C=CC(=O)Nc1cc(-n2c(=O)ccc3cnc4ccc(-c5ccc(NS(C)(=O)=O)cc5)cc4c32)ccc1C
[2]; at 1 µM
  % of control: 100%
[2]; at 10 µM
  % of control: 100%

## O=C(NOC[C@H](O)CO)c1ccc(F)c(F)c1Nc1ccc(I)cc1F
[3]
  % of control: 74%

## Cc1cc([C@@H](C)Nc2ccccc2C(=O)O)c2nc(N3CCOCC3)cc(=O)n2c1 [AZD-6482]
[4]
  % of control: 90%

## N#Cc1cccc(-c2c[nH]c3ncnc(N4CCOCC4)c23)c1
[5]
  % of inhibition: 7%
[6]
  % of inhibition: -10%
[7]
  % of inhibition: 2%

## CNC(=O)Nc1ccc(-c2nc(N3CC4CCC(C3)O4)c3cnn(C4CCC5(CC4)OCCO5)c3n2)cc1
[8]
  % of control: 100%

## O[C@H]1CC[C@H](Nc2ncc3nc(Nc4c(F)cc(F)cc4F)n([C@H]4CCOC4)c3n2)CC1
[9]
  % of control: 4.6%

## CC[C@@H]1[C@H](F)C(=O)N[C@@H]1COc1nccc2cc(C(N)=O)c(OC)cc12 [ZIMLOVISERTIB]
[10]; at 0.01 µM
  % of inhibition: 4.3%
[10]; at 0.04 µM
  % of inhibition: 27.3%
[10]; at 0.2 µM
  % of inhibition: 67%
[10]; at 1 µM
  % of inhibition: 91%
[10]; at 5 µM
  % of inhibition: 96.9%
[11]
  % of inhibition: -3.7%
